From patent US20060121112A1, “Topiramate pharmaceutical composition” (Elan Corporation, plc, priority 2004, published 2006)
Counter-ions that a name gives are not always drawn. Like-named read-outs stand apart in the source and are kept apart here. Marks after values point to notes of the source that are not given here.

Assays:
[1] = cited from earlier work
[2] = Pharmacoscintigraphy regional absorption biostudy with Enterion site-specific delivery capsule, topiramate plasma concentrations; assay type: in vivo, human; details: for Relative Bioavailability (%) Based on AUCinf: 200 mg topiramate API, Enterion capsule, healthy volunteers; for Relative Bioavailability (%) Based on AUCinf / Relative Bioavailability (%) Based on AUClast: vs Trt A; for Lambda / tmax / Relative Bioavailability (%) Based on AUClast / AUCinf / Cmax / half-life / AUC(0-inf) / AUC(0-t): 200 mg; for half-life: read-out: t½ (converted)
Method: A rational approach to obtain detailed information about how well topiramate is absorbed from the key residence areas of the gastrointestinal tract was conducted using the Enterion® site-specific delivery capsule, which is the subject of U.S. Pat. No. 6,632,216 which is incorporated herein by reference. The Enterion® site-specific delivery capsule is an easy to use non-invasive methodology for assessing regional drug absorption from the gastrointestinal tract. The capsule is 35mm in length and 10-12 mm in diameter and is capable of delivering solutions, suspensions or powders to specific sites. […] The capsules contain a drug chamber with a wide port, and therefore loading of all types of drug formulations into the capsule is relatively straightforward. Capsule activation is confirmed by means of a signal, which is emitted from the capsule when activation occurs and is relayed back to the activation unit.
A pharmacoscintigraphy study of topiramate was conducted at Pharmaceutical Profiles, Nottingham, UK utilizing their Enterion® site-specific delivery capsule technology. This study was designed to obtain detailed information about how well topiramate is absorbed from the key residence areas of the gastrointestinal tract. The examples below are a result of a biostudy that was a randomized, 4-treatment, 4-period study, conducted in 12 healthy volunteers. The test treatments administered using an Enterion® capsule and were as follows: Trt B represents 200 mg topiramate API delivered to the proximal small bowel (PSB), Trt C represents 200 mg topiramate API delivered to the distal small bowel (DSB), Trt D represents 200 mg topiramate API delivered to the colon. The reference treatment administered was Trt A which represents 200 mg topiramate as the commercial immediate release reference formulation, Topamax™. Topiramate plasma concentrations were measured in this study.
Analysis of plasma samples for topiramate was carried out in accordance with Bioanalytical Services Test Method number TM154. The method involves solid phase extraction of topiramate using Oasis HLB extraction cartridges. Topiramate is analysed using LC-MS/MS.
The standard curves for the analytical runs in the study covered the concentration range of 10-1000 ng/mL with a limit of quantitation of 10 ng/mL. All samples were diluted 1:10 prior to analysis.
The following parameters were derived from the plasma concentration data: individual and mean blood drug concentration levels, individual and mean peak levels, Cmax; individual and mean AUClast and AUCinf; individual and mean time to peak concentration, tmax, relative bioavailability of test compared to alternative formulation, Frel (%).

[3] = cited from earlier work; remark: listed apart in the source
[4] = Trt B, proximal small bowel (PSB)
[5] = Trt B, proximal small bowel (PSB), plasma
[6] = Trt C, distal small bowel (DSB)
[7] = human, plasma, Trt B, proximal small bowel (PSB)
[8] = human, plasma, Trt C, distal small bowel (DSB)
[9] = human, plasma, other: Enterion capsule, delivered to the colon, Trt D, colon, plasma

In the case of `CC(C)(N)Cc1ccccc1` [Phentermine hydrochloride, 1,1 -Dimethyl-2-phenethylamine hydrochloride], the solubility ([1]; in chloroform) is given as “slightly soluble”, the solubility ([1]; in ether) is given as “insoluble” and the solubility ([1]; in water and lower alcohols) is given as “soluble”.
In the case of `CC1(C)O[C@@H]2[C@@H](CO[C@@]3(COS(N)(=O)=O)OC(C)(C)O[C@@H]23)O1` [Topiramate, topiramate], the “Relative Bioavailability (%) Based on AUCinf” value [2, 4] is reported as 120.88 ± 20.20 %, the Lambda [2, 4] is reported as 0.02 ± 0.01˜ h^−1 and the tmax [2, 4] is reported as 2.08 ± 1.08 h. The “Relative Bioavailability (%) Based on AUClast” value [2, 4] was 113.06 ± 19.46 %, the AUCinf [2, 5] was 192140.44 ± 33798.87˜ ng/mL · h and the Cmax [2, 5] was 5255.66 ± 1870.32 ng/mL. For the same compound, the “Relative Bioavailability (%) Based on AUCinf” value [2, 6] was 120.99 ± 25.31$ %, the Lambda [2, 6] was 0.03 ± 0.01 h⁻¹ and the tmax [2, 6] was 3.64 ± 4.20 h. For the same compound, the “Relative Bioavailability (%) Based on AUClast” value [2, 6] was 125.69 ± 27.18˜ %, the AUCinf ([2]; Trt C, distal small bowel (DSB), plasma) was 193203.21 ± 57012.26 ng·h/mL and the “Relative Bioavailability (%) Based on AUCinf” value ([2]; Trt D, colon) was 111.85 ± 19.41^ %. The Lambda ([2]; Trt D, colon) was 0.03 ± 0.01* h^−1, the tmax ([2]; Trt D, colon) was 11.85 ± 7.44 h and the “Relative Bioavailability (%) Based on AUClast” value ([2]; Trt D, colon) was 107.14 ± 22.73˜ %. The AUCinf ([2]; Trt D, colon, plasma) was 181462.53 ± 46104.28 ng·h/mL, the Cmax ([2]; Trt D, colon, plasma) was 3878.07 ± 1267.71 ng/mL and the enhanced bioavailability ([2]; administered in the small or large intestine as compared to oral immediate release tablets) was “approximately 20%”. For the same compound, the Cmax ([2]; human, plasma, Trt B, proximal small bowel (PSB), plasma, read-out: Cmax) was 5260 ± 1870 ng/mL, the tmax ([2]; human, plasma, Trt B, proximal small bowel (PSB), read-out: tmax) was 2.1 ± 1.1 h and the half-life [2, 7] was 32.7 ± 9.7 h. The AUC(0-inf) [2, 7] was 192 ± 33.8 µg·h/mL, the AUC(0-t) [2, 7] was 150 ± 37.9 µg·h/mL and the Cmax ([2]; human, plasma, Trt C, distal small bowel (DSB), plasma, read-out: Cmax) was 4970 ± 1200 ng/mL. It also gave a tmax ([2]; human, plasma, Trt C, distal small bowel (DSB), read-out: tmax) of 3.6 ± 4.2 h, a half-life [2, 8] of 24.5 ± 6.18 h and an AUC(0-inf) [2, 8] of 193 ± 57 µg·h/mL. For the same compound, the AUC(0-t) [2, 8] was 160 ± 38.5 µg·h/mL, the AUC(0-inf) [2, 9] was 181 ± 46.1 µg·h/mL and the AUC(0-t) [2, 9] was 140 ± 40.7 µg·h/mL. The Cmax ([2]; human, plasma, other: Enterion capsule, delivered to the colon, Trt D, colon, plasma, read-out: Cmax) was 3880 ± 1270 ng/mL, the tmax ([2]; human, plasma, other: Enterion capsule, delivered to the colon, Trt D, colon, read-out: tmax) was 11.8 ± 7.4 h and the half-life ([2]; human, plasma, other: Enterion capsule, delivered to the colon, Trt D, colon) was 24.9 ± 5.2 h. The “metabolized in the liver” value ([3]; P-450 microsomal enzyme system) was 15%, the “time to peak blood levels” value ([3]; following a 400 mg oral dose) was “about 2 hours” and the Plasma protein binding ([3]; in vivo) was “approximately 15%”. For the same compound, the “excreted unchanged in the urine” value ([3]; in vivo) was “about 85%” and the bioavailability ([3]; oral administration) was about 100%.
